The text below walks through data of patent publication US5792444A, “Labeled chemotactic peptides to image focal sites of infection or inflammation” (The General Hospital Corporation, priority 1993, dated 1998).

Like-named read-outs stand apart in the source and are kept apart here. Where a SMILES comes first, the peptide text is derived from it. [ ]: non-standard residue; d: D form. The star is where a group is joined. HYNIC = NNc1ccc(C(=O)*)cn1; Ac6c = NC1(C(=O)O)CCCCC1; Nle = CCCC[C@H](N)C(=O)O; For = O=C*

For series [1], the target named is T1, neutrophils (Homo sapiens, UniProt P21462).
T1 sequence (P21462 1-350): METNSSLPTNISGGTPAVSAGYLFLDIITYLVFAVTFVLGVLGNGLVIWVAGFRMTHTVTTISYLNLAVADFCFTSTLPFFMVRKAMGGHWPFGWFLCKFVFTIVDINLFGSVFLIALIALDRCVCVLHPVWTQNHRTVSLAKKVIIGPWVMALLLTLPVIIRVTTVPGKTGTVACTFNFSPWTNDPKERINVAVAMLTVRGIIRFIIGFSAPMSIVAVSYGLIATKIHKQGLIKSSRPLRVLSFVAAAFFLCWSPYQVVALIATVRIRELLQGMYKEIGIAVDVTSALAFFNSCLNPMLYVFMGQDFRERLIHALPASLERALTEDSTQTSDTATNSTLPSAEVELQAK
The experiment in a line: Free radicals antagonist (inhibition of ForMLF stimulated free radical chemiluminescence). It counts as cell-based.

In series [2] the test system is neutrophils / human umbilical vein endothelial cells. The experiment in a line: cells. To be noted: read-out: Adhesion Antagonist IC50. It counts as cell-based. The protocol:
(§1) The unconjugated peptide iBoc-MLFK was evaluated in a neutrophil-endothelial cell adhesion assay. In this assay, neutrophils (5×10^5) labeled with 5-carboxyfluorescein diacetate were added into wells of a 48 well dish containing confluent human umbilical vein endothelial cells. The iBoc-MLFK peptide was added at a concentration of 10 μM 10 min prior to stimulation of neutrophils with 30 nM ForMLF. Percent adhesion was determined by washing off unattached neutrophils after an incubation period of 25 minutes. This peptide inhibited adhesion by 66% at this concentration. Subsequently, concentrations between 0.1-3.0 μM were examined. […] Inhibition of adhesion would reduce the infiltration of leukocytes, such as neutrophils, to a diseased site, thereby limiting the tissue damage associated with inflammation.
(§2) The procedure of Example 5 was repeated for additional CP's within the scope of the present invention. The results are shown in Table I. In the table, MPO is myeloperoxidase assay, a "-" sign means there was no effect at 30 μM, a "+" sign means there was a positive effect at 30 μM, and "N.T." means "Not

Series [3] addresses T1, neutrophils. The experiment in a line: Free radicals agonist (neutrophil free radical chemiluminescence). As to conditions: class symbol. It counts as cell-based.
In series [4] the target is T1, neutrophils. The experiment in a line: Binding (Table I, Cell Biology Data). The source says:
Three non-DTPA derivatized peptides were included in the assay for comparison.

The test system of series [5] is neutrophils / human umbilical vein endothelial cells. The experiment in a line: Adhesion agonist (neutrophil-endothelial cell adhesion assay). It counts as cell-based. As to conditions: class symbol; read-out: Adhesion Agonist EC50. The protocol:
as §1, §2

The target of series [6] is T1, neutrophils. The experiment in a line: MPO (myeloperoxidase assay) release. The format is cell-based. To be noted: pH5. The protocol:
as §2

The next series deals with human neutrophils. The experiment in a line: Assay of superoxide production (ferricytochrome C reduction). It counts as cell-based. As to conditions: 0.1 μM. The protocol: (§3) The chemical purity of the final product was evaluated by TLC, HPLC, UV spectroscopy, mass spectroscopy, and amino acid analysis. Determinations of the EC50 's for binding to the chemoattractant receptor on human PMN's and superoxide generation were performed as described in Pike, M. C., and Snyderman, R., Methods Enzymol. 162:236-245 (1988); Pike, M. C., et al., Blood 67:909-913 (1986); and Fischman, A. J., et al., J. Nucl. Med. 32:483-491 (1991).

Series [7] has as its target T1, neutrophils. Briefly: Chemoattraction of human neutrophils. It counts as cell-based. The protocol: (§4) In another preferred embodiment of the present invention, Y is 4-aminotetrahydropyran-4-carboxylic acid (Thp). […] The peptide that was prepared and tested was formyl-Thp-Leu-Phe-OMe.
The peptide that was prepared and tested was formyl-Met-Dpg-Phe--OH

For series [8], the target named is T1, neutrophils. Briefly: Superoxide production by human neutrophils (backbone analog). It counts as cell-based. The protocol:
as §4

Series [9] concerns the target T2, chemoattractant receptor on human PMN's (Homo sapiens, UniProt P21462).
T2 construct: endogenous in cells; host or cells: isolated human PMN's (neutrophils) from healthy volunteers, intact cells
T2 sequence (P21462 1-350): T1 sequence (P21462 1-350)
Briefly: For-MLF receptor binding assay (For-ML[3H]F displacement). To be noted: 15 nM For-ML[3H]F, 45 min, 24° C. The protocol:
Following incubation, the cells were filtered onto glass fiber discs (Whatman GF/C; Whatman, Inc., Clifton, N.J.) which were then washed with 20 mL of ice cold incubation buffer. The filters were placed in scintillation vials with 10 mL of Safety-Solve (Research Products International Corp., Mt. Prospect, Ill.) and radioactivity was measured by liquid scintillation spectroscopy. Specific binding is defined as total binding minus nonspecific binding. Nonspecific binding is the amount of residual bound radioactivity in the presence of 10 μM unlabeled For-MLF.
as §3

For a further series, the system named is rabbit neutrophils. The experiment in a line: Lysozyme release in rabbit neutrophils. It counts as cell-based. The protocol:
The peptide that was prepared and tested was formyl-Met-Acc^6 -Phe--OH.

Series [10] has as its system E. coli infection. On the set-up: species or system New Zealand white rabbits. As to conditions: rabbit, in vivo. The protocol:
In order to determine the feasibility of using radiolabeled chemotactic peptides for infection localization in animals that are sensitive to the neutropenic effects of these agents, imaging studies were performed in rabbits with focal E. coli infections. High specific activity ^99m Tc-labeled chemotactic peptide was used in these studies. Six male New Zealand white rabbits weighing 2-3 kg were anesthetized with ketamine and xylazine (15.0 and 1.5 mg/kg) and injected in the left posterior thigh muscle with a 1.0 mL suspension of approximately 2×10^9 E. coli. […] Images were recorded for a preset time of 5 minutes/view with a 15% window centered to include the 140 KeV photopeak of ^99m Tc. […]
After acquiring the final images, the animals were sacrificed by pentobarbital overdose and samples of blood, heart, lung, liver, spleen, kidney, stomach, intestine, testes, bone, marrow, normal skeletal muscle, infected skeletal muscle, and pus were weighed and radioactivity was measured as described above. To correct for radioactive decay, aliquots of the injected doses were counted simultaneously. The results were expressed as percent injected dose per gram. […] The cells were washed with 0.9% NaCl and the residual radioactivity in the cells and supernatant measured. […]

The test system of series [11] is E. coli infection. Also on record: species or system New Zealand white rabbits. To be noted: rabbit, in vivo. The protocol: Male New Zealand white rabbits weighing 2.2-3.0 kg were used in all studies. E. coli from a single clinical isolate were grown overnight on trypticase soy agar plates and individual colonies were diluted with sterile normal saline to produce a turbid suspension containing approximately 1×10^11 organisms/0.5 mL (determined with a spectrophotometer). A 0.5 mL inoculum of the bacterial suspension was injected deep in the left thigh muscle of the rabbits.
Twenty four hours after inoculation, rabbits with gross swelling in the infected thigh were injected with the radiopharmaceuticals through a lateral ear vein. Six animals were injected with a mixture of 1 mCi ^99m Tc-HP (>5,000 mCi/μMole) and 0.05 mCi of ^111 In labeled white blood cells.
At 3, 6, and 18 hours after injection of the radiolabeled reagents, the animals were anesthetized with ketamine/xylazine (15.0 and 1.5 mg/kg) and anterior whole body scintigrams were acquired using a large field of view gamma camera equipped with a parallel hole medium energy collimator interfaced to a dedicated computer system (Technicare Gemini 700, Technicare 560, Solon, Ohio). ^111 In and ^99m Tc images were acquired simultaneously in dual photon mode with 15% windows centered on photopeaks at 140 KeV for ^99m Tc and 247 KeV for ^111 In. At 3 and 6 hours after injection, two sets of images were acquired for a preset time of 5 minutes/view. At 18 hours after injection, the imaging time was extended to 10 minutes per view. Regions of interest were drawn over the area of infection and the contralateral normal muscle (background). The results were expressed as target-to-background ratios (infected thigh/contralateral thigh).
After acquiring the final images, the animals were sacrificed with an overdose of sodium pentobarbital and biodistribution was determined. Samples of blood, heart, lung, liver, spleen, kidney, adrenal, stomach, GI tract, testes, bone, bone marrow, normal muscle, infected muscle, and pus were weighed and radioactivity was measured with a well type gamma counter (LKB model #1282, Wallac Oy, Finland). To correct for radioactive decay and permit calculation of the concentration of radioactivity in each organ as a fraction of the administered dose, aliquots of the injected doses were counted simultaneously. The results were expressed as percent injected dose per gram (%I.D./g), infected to normal muscle ratios, and pus to normal muscle ratios.
To determine the nature of the radioactivity in the circulation and at the site of infection, the blood and pus samples were fractionated by gradient centrifugation on Lymphoprep. The plasma was further fractionated on a column of Sephadex G-100 (1.0×25 cm) eluted with PBS, pH 7.4. […]
This is another data set of the same source.

A short description of series [12]: Example 1: biological activity (EC50) of peptide and DTPA derivative. The source says: The chemotactic peptide N-formyl-Nle-Leu-Phe-Nle-Tyr-Lys was synthesized using standard solid phase methods well-known in the art (Merrifield, R. B., J. Am. Chem. Soc. […]:2149-2154 (1963); Stewart, J. M., and Young, J. D., Solid Phase Peptide Synthesis, W. H. Freeman & Company, San Francisco, Calif. (1969)). The epsilon amino group of the C-terminal lysine was modified with DTPA using a cyclic anhydride. […] The peptide was readily radiolabeled with ^111 In.

Take iBoc--MLF--S--SPNH [Example 39]: the IC50 at neutrophils [1] was 3 to 3.5 µM; in series [2] it was more than 30 µM. The EC50 at neutrophils [3] was more than 30 µM; at neutrophils [4], 0.6 to 22 µM.

Consider iBoc--MLF--O--SPNH [Example 38], for which the concentration for a half-maximal effect (EC50) in series [5] was less than 30 µM; on neutrophils [6], 0.4 µM; on neutrophils [3] it was more than 30 µM; at neutrophils [4], 0.15 to 5 µM. Also, the IC50 was 5 to 6 µM on neutrophils [1] and more than 30 µM in series [2].

Regarding `CCCCCCCCCCCCCC(=O)O[C@@H]1[C@@H](C)[C@@]2(O)[C@@H](C=C(CO)C[C@]3(O)C(=O)C(C)=C[C@@H]23)[C@@H]2C(C)(C)[C@]12OC(C)=O` [PMA, phorbol myristate acetate], in the series on human neutrophils, the “maximal response of superoxide production” value is on record as 22.9 nmol 02^- produced/10^6 cells/10 min.

As to formyl-Thp-Leu-Phe-OMe, on neutrophils [7], the chemoattractant activity entry was “chemoattractant agent to human neutrophils”. Moreover, the “stimulation of superoxide production” value on neutrophils [8] is on record as “did not stimulate superoxide production”.

`CCCC[C@H](NC=O)C(=O)N[C@@H](CC(C)C)C(=O)N[C@@H](Cc1ccccc1)C(=O)O` [For-NleLF, N-formyl-norleucyl-leucyl-phenylalanine] (For-[Nle]-Leu-Phe-OH): in series [9], the EC50 stood at 0.3 µM.

With `CSCC[C@H](NC=O)C(=O)NC1(C(=O)N[C@@H](Cc2ccccc2)C(=O)O)CCCCC1` [formyl-Met-Acc^6 -Phe--OH] (For-Met-[Ac6c]-Phe-OH), the lysozyme release result with rabbit neutrophils is “potent inducer of lysozyme release”.

Turning to `CSCC[C@H](NC=O)C(=O)N[C@@H](CC(C)C)C(=O)N[C@@H](Cc1ccccc1)C(=O)N[C@H](CCCCNC(=O)c1ccc(NN)nc1)C(N)=O` [Example 99mTc-HP4, metal not drawn] (For-MLF[dK](HYNIC)-NH2), in the series with E. coli infection [10], the “percent residual circulating radioactivity that was cell associated” value was “approximately 25%” and the “radioactivity of pus associated with WBC's” value is on record as “approximately 90%”.

For the compound `CSCC[C@H](NC=O)C(=O)N[C@@H](CC(C)C)C(=O)N[C@@H](Cc1ccccc1)C(=O)N[C@@H](CCCCNC(=O)c1ccc(NN)nc1)C(=O)O` [Example 99mTc-HP, Formyl-Methionyl-Leucyl-Phenylalanyl-Lysyl-hydrazininicotinamide, metal not drawn] (For-MLFK(HYNIC)-OH), in the series with E. coli infection [11], the “binding to red blood cells” value is less than 2%, the “circulating radioactivity associated with leukocytes” value was ~ 25%, the “plasma radioactivity not bound to WBC's eluting with apparent molecular weight of 150,000 (IgG fraction)” value is more than 95% and the “radioactivity of pus associated with WBC's” value is on record as “approximately 90%”.

As to `CCCC[C@H](NC=O)C(=O)N[C@@H](CC(C)C)C(=O)N[C@@H](Cc1ccccc1)C(=O)N[C@@H](CCCC)C(=O)N[C@@H](Cc1ccc(O)cc1)C(=O)N[C@@H](CCCCN)C(=O)O` [For-NleLFNleYK, N-formyl-norleucyl-leucyl-phenylalanyl-norleucyl-tyrosyl-lysine] (For-[Nle]LF[Nle]YK-OH), the results for the EC50 in series [12] and in [9] were approximately 0.001 µM and 0.001 µM, respectively.

With iBoc--MLF--SPNH [Example 37], the IC50 is 10 to 30 µM against neutrophils [1] and more than 30 µM in series [2]. Moreover, the EC50 is more than 30 µM on neutrophils [3] and 0.15 to 5 µM at neutrophils [4].

What is called IC50 is the concentration that inhibits the measured activity by half. As usually defined, the EC50 is the concentration that produces a half-maximal response.
